According to patent US20100029657A1, “Bridged, Bicyclic Heterocyclic or Spiro Bicyclic Heterocyclic Derivatives of Pyrazolo[1, 5-A]Pyrimidines, Methods for Preparation and Uses Thereof” (Wyeth, priority 2008, published 2010):

biological target: T1, Flag/GST-tagged recombinant human B-Raf (Homo sapiens, UniProt P15056); assay: B-Raf kinase assay (phosphorylation of GST-MEK1, phospho-MEK1 antibody/Europium detection); type: biochemical; settings: B-Raf IC50 Data for compounds of Formula A; read-out: Mean IC50
T1 construct: Flag; GST; made in house; host or cells: Sf9 insect cells (B-Raf); E. coli (MEK1-GST)
T1 sequence (P15056 whole entry): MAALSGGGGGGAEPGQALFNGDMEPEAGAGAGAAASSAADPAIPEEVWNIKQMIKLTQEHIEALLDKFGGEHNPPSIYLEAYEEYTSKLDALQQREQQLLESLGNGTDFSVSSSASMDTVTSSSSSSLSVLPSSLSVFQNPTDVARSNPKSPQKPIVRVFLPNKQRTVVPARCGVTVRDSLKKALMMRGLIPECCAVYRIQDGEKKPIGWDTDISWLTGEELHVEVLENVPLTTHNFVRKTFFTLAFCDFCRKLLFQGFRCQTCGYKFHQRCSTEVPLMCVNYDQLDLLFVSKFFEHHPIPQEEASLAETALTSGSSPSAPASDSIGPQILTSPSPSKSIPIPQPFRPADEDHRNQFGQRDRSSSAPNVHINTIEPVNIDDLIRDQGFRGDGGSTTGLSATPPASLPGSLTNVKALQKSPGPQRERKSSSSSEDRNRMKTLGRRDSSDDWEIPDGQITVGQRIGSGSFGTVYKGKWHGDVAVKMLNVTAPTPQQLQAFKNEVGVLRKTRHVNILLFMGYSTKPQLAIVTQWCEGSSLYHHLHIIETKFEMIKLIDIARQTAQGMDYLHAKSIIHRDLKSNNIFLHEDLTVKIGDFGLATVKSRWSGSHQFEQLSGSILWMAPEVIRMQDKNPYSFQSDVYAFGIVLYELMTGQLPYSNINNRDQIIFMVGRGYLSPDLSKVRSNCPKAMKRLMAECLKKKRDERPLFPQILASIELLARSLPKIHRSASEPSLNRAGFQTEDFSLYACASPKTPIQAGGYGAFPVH
Summary of the method: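 Percent inhibition was calculated at each compound concentration from Europium time-resolved fluorescence (anti-phospho-MEK1, then Eu-conjugated anti-rabbit) after GST capture. The upstream kinase step used GST-MEK1 with 0.2 nM B-Raf for 45 min at room temperature in MOPS buffer, pH 7.2. It was started with a cocktail of 200 μM ATP and 40 mM MgCl2.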

| IC50 [nM] | SMILES |
| --- | --- |
| 11.4 | c1cc(-c2c(-c3ccncc3)nn3c2nccc3[C@H]2CC[C@@H](N3C[C@@H]4C[C@H]3CO4)CC2)c2cn[nH]c2c1 [Example 154, 3-(1H-indazol-4-yl)-7-{cis-4-[(1S,4S)-2-oxa-5-azabicyclo[2.2.1]hept-5-yl]cyclohexyl}-2-pyridin-4-ylpyrazolo[1,5-a]pyrimidine] |
| 3.5 | c1cc(-c2c(-c3ccncc3)nn3c2nccc3[C@H]2CC[C@H](N3C[C@@H]4C[C@H]3CO4)CC2)c2cn[nH]c2c1 [Example 155, 3-(1H-indazol-4-yl)-7-{trans-4-[(1S,4S)-2-oxa-5-azabicyclo[2.2.1]hept-5-yl]cyclohexyl}-2-pyridin-4-ylpyrazolo[1,5-a]pyrimidine] |
| 0.6 | c1cc(-c2c(-c3ccncc3)nn3c2nccc3[C@H]2CC[C@H](N3C[C@@H]4C[C@H]3CN4)CC2)c2cn[nH]c2c1 [Example 156, 7-{trans-4-[(1S,4S)-2,5-diazabicyclo[2.2.1]hept-2-yl]cyclohexyl}-3-(1H-indazol-4-yl)-2-pyridin-4-ylpyrazolo[1,5-a]pyrimidine] |
| 1.2 | FC(F)(F)c1cc(-c2ccnc3c(-c4cccc5[nH]ncc45)c(-c4ccncc4)nn23)ccc1N1C[C@@H]2C[C@H]1CN2 [Example 157, 7-{4-[(1S,4S)-2,5-diazabicyclo[2.2.1]hept-2-yl]-3-(trifluoromethyl)phenyl}-3-(1H-indazol-4-yl)-2-pyridin-4-ylpyrazolo[1,5-a]pyrimidine] |
| 20.9 | c1cc(-c2c(-c3ccncc3)nn3c(-c4ccc(N5C[C@@H]6C[C@H]5CN6)c5ccccc45)ccnc23)c2cn[nH]c2c1 [Example 158, 7-{4-[(1S,4S)-2,5-diazabicyclo[2.2.1]hept-2-yl]-1-naphthyl}-3-(1H-indazol-4-yl)-2-pyridin-4-ylpyrazolo[1,5-a]pyrimidine] |
| 2 | CN1C[C@@H]2C[C@H]1CN2c1ccc(-c2ccnc3c(-c4cccc5[nH]ncc45)c(-c4ccncc4)nn23)cc1C(F)(F)F [Example 159, 3-(1H-indazol-4-yl)-7-{4-[(1S,4S)-5-methyl-2,5-diazabicyclo[2.2.1]hept-2-yl]-3-(trifluoromethyl)phenyl}-2-pyridin-4-ylpyrazolo[1,5-a]pyrimidine] |
| 25.3 | CN1C[C@@H]2C[C@H]1CN2c1ccc(-c2ccnc3c(-c4cccc5[nH]ncc45)c(-c4ccncc4)nn23)c2ccccc12 [Example 160, 3-(1H-indazol-4-yl)-7-{4-[(1S,4S)-5-methyl-2,5-diazabicyclo[2.2.1]hept-2-yl]-1-naphthyl}-2-pyridin-4-ylpyrazolo[1,5-a]pyrimidine] |
| 2.7 | Fc1cc(-c2ccnc3c(-c4cccc5[nH]ncc45)c(-c4ccncc4)nn23)cc(F)c1N1C[C@@H]2C[C@H]1CN2 [Example 161, 7-{4-[(1S,4S)-2,5-diazabicyclo[2.2.1]hept-2-yl]-3,5-difluorophenyl}-3-(1H-indazol-4-yl)-2-pyridin-4-ylpyrazolo[1,5-a]pyrimidine] |
| 0.5 | Fc1c(-c2ccnc3c(-c4cccc5[nH]ncc45)c(-c4ccncc4)nn23)ccc(N2C[C@@H]3C[C@H]2CN3)c1F [Example 162, 7-{4-[(1S,4S)-2,5-diazabicyclo[2.2.1]hept-2-yl]-2,3-difluorophenyl}-3-(1H-indazol-4-yl)-2-pyridin-4-ylpyrazolo[1,5-a]pyrimidine] |
| < 0.3 | Fc1cc(N2C[C@@H]3C[C@H]2CN3)c(F)cc1-c1ccnc2c(-c3cccc4[nH]ncc34)c(-c3ccncc3)nn12 [Example 163, 7-{4-[(1S,4S)-2,5-diazabicyclo[2.2.1]hept-2-yl]-2,5-difluorophenyl}-3-(1H-indazol-4-yl)-2-pyridin-4-ylpyrazolo[1,5-a]pyrimidine] |
| 9.6 | CN1C[C@@H]2C[C@H]1CN2c1c(F)cc(-c2ccnc3c(-c4cccc5[nH]ncc45)c(-c4ccncc4)nn23)cc1F [Example 164, 7-{3,5-difluoro-4-[(1S,4S)-5-methyl-2,5-diazabicyclo[2.2.1]hept-2-yl]phenyl}-3-(1H-indazol-4-yl)-2-pyridin-4-ylpyrazolo[1,5-a]pyrimidine] |
| 0.6 | CN1C[C@@H]2C[C@H]1CN2c1ccc(-c2ccnc3c(-c4cccc5[nH]ncc45)c(-c4ccncc4)nn23)c(F)c1F [Example 165, 7-{2,3-difluoro-4-[(1S,4S)-5-methyl-2,5-diazabicyclo[2.2.1]hept-2-yl]phenyl}-3-(1H-indazol-4-yl)-2-pyridin-4-ylpyrazolo[1,5-a]pyrimidine] |
| 0.4 | CN1C[C@@H]2C[C@H]1CN2c1cc(F)c(-c2ccnc3c(-c4cccc5[nH]ncc45)c(-c4ccncc4)nn23)cc1F [Example 166, 7-{2,5-difluoro-4-[(1S,4S)-5-methyl-2,5-diazabicyclo[2.2.1]hept-2-yl]phenyl}-3-(1H-indazol-4-yl)-2-pyridin-4-ylpyrazolo[1,5-a]pyrimidine] |
| < 0.3 | CCN1C[C@@H]2C[C@H]1CN2c1cc(F)c(-c2ccnc3c(-c4cccc5[nH]ncc45)c(-c4ccncc4)nn23)c(F)c1 [Example 167, 7-{4-[(1S,4S)-5-ethyl-2,5-diazabicyclo[2.2.1]hept-2-yl]-2,6-difluorophenyl}-3-(1H-indazol-4-yl)-2-pyridin-4-ylpyrazolo[1,5-a]pyrimidine] |
| < 0.3 | CC(C)CN1C[C@@H]2C[C@H]1CN2c1cc(F)c(-c2ccnc3c(-c4cccc5[nH]ncc45)c(-c4ccncc4)nn23)c(F)c1 [Example 168, 7-{2,6-difluoro-4-[(1S,4S)-5-isobutyl-2,5-diazabicyclo[2.2.1]hept-2-yl]phenyl}-3-(1H-indazol-4-yl)-2-pyridin-4-ylpyrazolo[1,5-a]pyrimidine] |
| < 0.3 | CC(C)N1C[C@@H]2C[C@H]1CN2c1cc(F)c(-c2ccnc3c(-c4cccc5[nH]ncc45)c(-c4ccncc4)nn23)c(F)c1 [Example 169, 7-{2,6-difluoro-4-[(1S,4S)-5-isopropyl-2,5-diazabicyclo[2.2.1]hept-2-yl]phenyl}-3-(1H-indazol-4-yl)-2-pyridin-4-ylpyrazolo[1,5-a]pyrimidine] |
| < 0.3 | Fc1cc(N2C[C@@H]3C[C@H]2CN3C2CCC2)cc(F)c1-c1ccnc2c(-c3cccc4[nH]ncc34)c(-c3ccncc3)nn12 [Example 170, 7-{4-[(1S,4S)-5-cyclobutyl-2,5-diazabicyclo[2.2.1]hept-2-yl]-2,6-difluorophenyl}-3-(1H-indazol-4-yl)-2-pyridin-4-ylpyrazolo[1,5-a]pyrimidine] |
| 0.3 | Fc1cc(N2C[C@@H]3CC[C@H]2CN3)ccc1-c1ccnc2c(-c3cccc4[nH]ncc34)c(-c3ccncc3)nn12 [Example 172, 7-{4-[(1S,4S)-2,5-diazabicyclo[2.2.2]oct-2-yl]-2-fluorophenyl}-3-(1H-indazol-4-yl)-2-pyridin-4-ylpyrazolo[1,5-a]pyrimidine] |
| 0.4 | CN1C[C@@H]2CC[C@H]1CN2c1ccc(-c2ccnc3c(-c4cccc5[nH]ncc45)c(-c4ccncc4)nn23)c(F)c1 [Example 173, 7-{2-fluoro-4-[(1S,4S)-5-methyl-2,5-diazabicyclo[2.2.2]oct-2-yl]phenyl}-3-(1H-indazol-4-yl)-2-pyridin-4-ylpyrazolo[1,5-a]pyrimidine] |
| 0.4 | CN1C[C@@H]2C[C@H]1CN2c1c(F)c(F)c(-c2ccnc3c(-c4cccc5[nH]ncc45)c(-c4ccncc4)nn23)c(F)c1F [Example 174, 3-(1H-indazol-4-yl)-2-pyridin-4-yl-7-{2,3,5,6-tetrafluoro-4-[(1S,4S)-5-methyl-2,5-diazabicyclo[2.2.1]hept-2-yl]phenyl}pyrazolo[1,5-a]pyrimidine] |
| 1 | CC(C)(C)OC(=O)N1C[C@@H]2C[C@H]1CN2c1ccc(-c2ccnc3c(-c4ccc(F)c5[nH]ncc45)c(-c4ccncc4)nn23)c(Cl)c1 [Example 175, tert-butyl (1S,4S)-5-{3-chloro-4-[3-(7-fluoro-1H-indazol-4-yl)-2-pyridin-4-ylpyrazolo[1,5-a]pyrimidin-7-yl]phenyl}-2,5-diazabicyclo[2.2.1]heptane-2-carboxylate] |
| 1 | Fc1ccc(-c2c(-c3ccncc3)nn3c2nccc3[C@H]2CC[C@@H](N3C[C@@H]4C[C@H]3CN4)CC2)c2cn[nH]c12 [Example 176, 7-{cis-4-[(1S,4S)-2,5-diazabicyclo[2.2.1]hept-2-yl]cyclohexyl}-3-(7-fluoro-1H-indazol-4-yl)-2-pyridin-4-ylpyrazolo[1,5-a]pyrimidine] |
| 4 | Fc1ccc(-c2c(-c3ccncc3)nn3c2nccc3[C@H]2CC[C@@H](N3C[C@@H]4C[C@H]3CO4)CC2)c2cn[nH]c12 [Example 177, 3-(7-fluoro-1H-indazol-4-yl)-7-{cis-4-[(1S,4S)-2-oxa-5-azabicyclo[2.2.1]hept-5-yl]cyclohexyl}-2-pyridin-4-ylpyrazolo[1,5-a]pyrimidine] |
| 6.7 | Fc1ccc(-c2c(-c3ccncc3)nn3c2nccc3[C@H]2CC[C@H](N3C[C@@H]4C[C@H]3CO4)CC2)c2cn[nH]c12 [Example 178, 3-(7-fluoro-1H-indazol-4-yl)-7-{trans-4-[(1S,4S)-2-oxa-5-azabicyclo[2.2.1]hept-5-yl]cyclohexyl}-2-pyridin-4-ylpyrazolo[1,5-a]pyrimidine] |
| < 0.3 | Fc1ccc(-c2c(-c3ccncc3)nn3c2nccc3[C@H]2CC[C@H](N3C[C@@H]4C[C@H]3CN4)CC2)c2cn[nH]c12 [Example 183, 7-{trans-4-[(1S,4S)-2,5-diazabicyclo[2.2.1]hept-2-yl]cyclohexyl}-3-(7-fluoro-1H-indazol-4-yl)-2-pyridin-4-ylpyrazolo[1,5-a]pyrimidine] |
| < 0.3 | Fc1ccc(-c2c(-c3ccncc3)nn3c(-c4ccc(N5C[C@@H]6C[C@H]5CN6)cc4Cl)ccnc23)c2cn[nH]c12 [Example 184, 7-{2-chloro-4-[(1S,4S)-2,5-diazabicyclo[2.2.1]hept-2-yl]phenyl}-3-(7-fluoro-1H-indazol-4-yl)-2-pyridin-4-ylpyrazolo[1,5-a]pyrimidine] |
